Experiments:
Details in all cases: 72 h
Caco-2 [1] = test: cell viability relative to DMSO; higher = less toxic
Calu-3 [2] = test: as above
HepG2 [3] = test: as above
U2OS [4] = test: as above
Vero E6 [5] = test: as above
Caco-2 [6] = test: relative viability EC50 (midpoint between 100% and the lowest measured viability); higher = less toxic
Calu-3 [7] = test: as above
Caco-2 [8] = test: drug sensitivity score (DSS) for viability; higher = more toxic; extreme values may be limits of the assay
Calu-3 [9] = test: as above
HepG2 [10] = test: as above
U2OS [11] = test: as above
Vero E6 [12] = test: as above
HepG2 [13] = test: relative viability EC50 (midpoint between 100% and the lowest measured viability); higher = less toxic
U2OS [14] = test: as above
Vero E6 [15] = test: as above

Row | SMILES | cell viability (Caco-2 [1]; 1 nM) [%] | cell viability (Caco-2 [1]; 10 nM) [%] | cell viability (Caco-2 [1]; 100 nM) [%] | cell viability (Caco-2 [1]; 1000 nM) [%] | cell viability (Caco-2 [1]; 10000 nM) [%] | cell viability (Calu-3 [2]; 1 nM) [%] | cell viability (Calu-3 [2]; 10 nM) [%] | cell viability (Calu-3 [2]; 100 nM) [%] | cell viability (Calu-3 [2]; 1000 nM) [%] | cell viability (Calu-3 [2]; 10000 nM) [%] | cell viability (HepG2 [3]; 1 nM) [%] | cell viability (HepG2 [3]; 10 nM) [%] | cell viability (HepG2 [3]; 100 nM) [%] | cell viability (HepG2 [3]; 1000 nM) [%] | cell viability (HepG2 [3]; 10000 nM) [%] | cell viability (U2OS [4]; 1 nM) [%] | cell viability (U2OS [4]; 10 nM) [%] | cell viability (U2OS [4]; 100 nM) [%] | cell viability (U2OS [4]; 1000 nM) [%] | cell viability (U2OS [4]; 10000 nM) [%] | cell viability (Vero E6 [5]; 1 nM) [%] | cell viability (Vero E6 [5]; 10 nM) [%] | cell viability (Vero E6 [5]; 100 nM) [%] | cell viability (Vero E6 [5]; 1000 nM) [%] | cell viability (Vero E6 [5]; 10000 nM) [%] | relative viability EC50 (Caco-2 [6]) [µM] | relative viability EC50 (Calu-3 [7]) [µM] | drug sensitivity score (Caco-2 [8]) | drug sensitivity score (Calu-3 [9]) | drug sensitivity score (HepG2 [10]) | drug sensitivity score (U2OS [11]) | drug sensitivity score (Vero E6 [12]) | relative viability EC50 (HepG2 [13]) [µM] | relative viability EC50 (U2OS [14]) [µM] | relative viability EC50 (Vero E6 [15]) [µM]
1 | CN1CCN(c2cccc(Nc3nc4c(-c5ccc(S(C)(=O)=O)cc5)cccn4n3)c2)CC1 | 78.9 | 95.2 | 95.1 | 93.1 | 91 | 97.9 | 99.4 | 91.8 | 125 | 136 | 100 | 95.9 | 94.1 | 84.8 | 58.9 | 96.1 | 102 | 94.8 | 95.8 | 68.9 | 96.4 | 95.1 | 94.8 | 96.3 | 73.6 | > 10 | > 10 | 0 | 0 | 3.6 | 2.1 | 1.6 |  |  | 
2 | COc1cc(NC(=O)c2ccccn2)ccc1Cl | 100 | 94.5 | 95.3 | 90.8 | 92.3 |  |  |  |  |  | 92.9 | 99.2 | 91 | 102 | 94.9 | 100 | 95.3 | 101 | 99.4 | 96.3 | 101 | 99 | 96.3 | 102 | 95.3 | > 10 |  | 0 |  | 0 | 0 | 0 | > 10 | > 10 | > 10
3 | CS(=O)(=O)CCNCc1nc(-c2ccc3ncnc(Nc4ccc(OCc5cccc(F)c5)c(Cl)c4)c3c2)cs1 | 97.1 | 97.5 | 90.5 | 80.8 | 73.1 |  |  |  |  |  | 106 | 111 | 93.5 | 102 | 104 | 99.9 | 100 | 96.7 | 94.2 | 89.8 | 95 | 98.3 | 93.3 | 79 | 72.5 |  |  | 3.5 |  | 0 | 0 | 3.7 | > 10 | > 10 | 
4 | Cn1ccc2cc3c(cc21)CCN3C(=O)Nc1cccnc1 | 88.8 | 93.2 | 98.1 | 104 | 81.3 |  |  |  |  |  | 105 | 114 | 95.7 | 95.3 | 100 | 98.2 | 102 | 93.9 | 96 | 95.1 | 99.1 | 96.8 | 100 | 95.5 | 100 | > 10 |  | 0.1 |  | 0 | 0 | 0 | > 10 | > 10 | > 10
5 | Nc1ncnc2[nH]nc(Nc3ccc(F)cc3)c12 | 95 | 93.5 | 106 | 93.1 | 73.4 | 102 | 101 | 101 | 95.6 | 79.2 | 114 | 101 | 108 | 96.5 | 66.2 | 98.5 | 98.9 | 98.4 | 96 | 83 | 107 | 103 | 99.8 | 101 | 54.4 |  | > 10 | 2.1 | 1.2 | 2.1 | 0.8 | 2.3 |  | > 10 | 
6 | O=C(C1CC1)N1CC[C@@H](Cc2n[nH]c(=O)n2-c2ccc(-c3ccc4occc4c3)cc2)C1 | 104 | 97.8 | 91.9 | 89.5 | 76.3 |  |  |  |  |  | 109 | 106 | 93.2 | 80.2 | 71.2 | 102 | 96.2 | 101 | 97.3 | 99.7 | 97.4 | 101 | 98.8 | 100 | 98.9 | > 10 |  | 1.7 |  | 3.6 | 0 | 0 |  | > 10 | > 10
7 | O=C1NC(=O)c2cc(Nc3ccccc3)c(Nc3ccccc3)cc21 | 92.3 | 101 | 91.7 | 102 | 82.5 | 108 | 96.9 | 106 | 98.5 | 89.3 | 109 | 106 | 105 | 100 | 56.4 |  |  |  |  |  | 96.3 | 99.2 | 98.6 | 97.4 | 86.3 | > 10 | > 10 | 0.3 | 0 | 2.2 |  | 0.3 |  |  | > 10
8 | O=C1Nc2cc(Cl)c(Cl)cc2N2CCNC[C@H]12 | 110 | 100 | 102 | 92.2 | 85.9 | 103 | 95.1 | 97.3 | 97.7 | 92.5 |  |  |  |  |  | 102 | 94.9 | 100 | 95 | 96.2 | 104 | 100 | 100 | 99.1 | 95.7 | > 10 | > 10 | 0.7 | 0 |  | 0 | 0 |  | > 10 | > 10
9 | O=c1[nH]c([C@@H]2CCCN2)nc2c1oc1ccc(Cl)cc12 | 96.9 | 87 | 87.5 | 93.5 | 83.1 |  |  |  |  |  | 97 | 98.2 | 104 | 83.5 | 60.3 | 95 | 100 | 93.4 | 96.7 | 90.9 | 103 | 99.7 | 104 | 90.9 | 71.8 | > 10 |  | 1.2 |  | 4.2 | 0 | 2.4 |  | > 10 | 
10 | OC[C@H]1O[C@@H](n2cnc3c(NC4CCCC4)nc(Cl)nc32)[C@H](O)[C@@H]1O [2-chloro-N6-cyclopentyladenosine] |  |  |  |  |  | 105 | 91.8 | 104 | 92.6 | 106 |  |  |  |  |  |  |  |  |  |  | 102 | 106 | 98.5 | 99.5 | 104 |  | > 10 |  | 0 |  |  | 0 |  |  | > 10
11 | O=C(/C=C/c1cccnc1)c1ccncc1 [3PO] | 103 | 97.1 | 99.7 | 92.3 | 77.3 |  |  |  |  |  | 103 | 102 | 93.2 | 112 | 72.7 | 101 | 99.7 | 100 | 99 | 82.5 | 107 | 112 | 100 | 111 | 87.7 | > 10 |  | 1.8 |  | 0.7 | 0.5 | 0 |  | > 10 | > 10
12 | CC(C)(O)CC[C@@H](O)[C@](C)(O)[C@H]1CC[C@@]2(O)C3=CC(=O)[C@@H]4C[C@@H](O)[C@@H](O)C[C@]4(C)[C@H]3CC[C@]12C [20-hydroxyecdysone] | 98.8 | 98.4 | 85.5 | 96.8 | 97.1 | 93.6 | 101 | 91 | 102 | 114 |  |  |  |  |  | 98 | 101 | 99.2 | 99.7 | 102 |  |  |  |  |  | > 10 | > 10 | 0 | 0 |  | 0 |  |  | > 10 | 
13 | COc1cccc(C=NCCN=Cc2cccc(OC)c2[O-])c1[O-].[Cl-].[Mn+3] [EUK-134] | 94.7 | 89 | 91.5 | 92 | 85.6 | 110 | 87.9 | 102 | 94 | 99.3 | 95 | 109 | 99.5 | 101 | 72.3 | 101 | 96.6 | 107 | 99.3 | 99 | 98.4 | 102 | 99.3 | 105 | 96 | > 10 | > 10 | 0 | 0 | 1.1 | 0 | 0 |  | > 10 | > 10
14 | CC(C)(N)c1cc(C(=O)N[C@@H]2CCc3ccc(Oc4ccnc5c4CCC(=O)N5)cc3C2)cc(C(F)(F)F)c1 [ML786] | 108 | 92.7 | 104 | 90.8 | 68.5 |  |  |  |  |  | 99.2 | 110 | 62.4 | 31.1 | 6.8 | 101 | 98.6 | 100 | 82.4 | 9.6 | 106 | 105 | 112 | 99 | 33.5 |  |  | 2.7 |  | 17.5 | 7.9 | 3.8 | 0.221 | 1.76 | 3.06
15 | Cc1ccc(-c2nn(C(C)(C)C)c3ncnc(N)c23)cc1 [PP-1] | 102 | 96.2 | 103 | 91.5 | 59.7 | 85.9 | 96.9 | 94 | 91.2 | 43.9 | 106 | 91.8 | 92.8 | 89.3 | 69 | 100 | 94.8 | 104 | 90.9 | 55 | 107 | 104 | 103 | 105 | 48.7 |  | 1.94 | 3.4 | 4.5 | 2.3 | 3.8 | 2.3 |  |  | 3.66
16 | CC(C)=CCc1c(O)cc(O)c2c(=O)c(O)c(-c3ccc(C(F)(F)F)cc3)oc12 [SNG-1153] | 92.1 | 93.8 | 98.1 | 95.8 | 40 | 114 | 89.6 | 108 | 99.3 | 68.1 | 97.3 | 98.8 | 106 | 103 | 40.2 | 96.7 | 94.7 | 94.5 | 99.9 | 43.2 | 100 | 94.3 | 100 | 93 | 50.7 | 2.6 |  | 3.9 | 1.5 | 3 | 3.1 | 3.8 | 3.43 | 3.14 | 
